The record followed here is patent US9956319B2, “Compositions useful as antibiofilm or antimicrobial agents and methods using same” (BAYLOR COLLEGE OF MEDICINE, priority 2012, dated 2018).

The subject of assay [1] is methicillin-resistant Staphylococcus aureus (MRSA). Kind of assay: Bacterial colony counts extracted from impregnated central venous catheters after incubation in bacterial suspension. The format is cell-based. The following applies: 10^5 cfu/ml suspension in TSB, 37° C., 24 hours. As for the experimental part:
(§1) In this example, segments of 7 French triple lumen polyurethane central venous catheters were impregnated with α-lipoic acid using the method described elsewhere (U.S. Pat. No. 6,589,591) and were subjected to zones of inhibition. Briefly, α-lipoic acid was dissolved in 88% formic acid (at a final solution concentration of 50 mg/ml). 85% ortho-Phosphoric acid and glycerol were then added to the solution at 79:8:13 (v/v/v) (formic acid:ortho-phosphoric acid:glycerol). After mixing the solution, 300 mg/ml of potassium chloride was added to the final solution and mixed.
(§2) Catheter segments were then placed in the impregnating solution at 55° C. with agitation for 1 hour in the dark. Catheter segments were then removed from the solution and dried under a fume hood overnight in the dark. Catheter segments were rinsed with deionized water the next day and let dry for another 18 hours in the dark. After the impregnation process and drying, one-centimeter segments of impregnated catheters were individually placed in 1 ml of 10^5 cfu/ml suspensions of methicillin-sensitive Staphylococcus epidermidis (MSSE), methicillin-resistant Staphylococcus epidermidis (MRSE), methicillin-resistant Staphylococcus aureus (MRSA), Klebsiella pneumoniae, Escherichia coli, or Proteus mirabilis in trypticase soy broth (TSB) at 37° C. for 24 hours. One-centimeter segments of non-impregnated catheters were also incubated individually in each bacterial suspension at 37° C. for 24 hours as controls. Catheter segments were removed from each bacterial suspension after this period, shaken to remove excess broth containing free-floating bacteria from their surfaces, placed in 1 ml of normal saline, sonicated for 5 minutes, and vortexed for 30 seconds.
(§3) Aliquots of each suspension and subsequent dilutions were cultured quantitatively.
(§4) To evaluate the anticolonization/antimicrobial activity of central venous catheters treated with lipoamide, segments of 7 French triple lumen polyurethane central venous catheters were impregnated with lipoamide using the same patented method described in Example 1 (U.S. Pat. No. 6,589,591) with 100 mg/ml (final solution volume) of the agent. After the impregnation process and drying, Catheter segments were then placed in the impregnating solution at 55° C. with agitation for 1 hour in the dark. Catheter segments were then removed from the solution and dried under a fume hood overnight in the dark. Catheter segments were rinsed with deionized water the next day and let dry for another 18 hours in the dark. After the impregnation process and drying, one-centimeter segments of impregnated catheters were individually placed in 1 ml of 10^5 cfu/ml suspensions of MRSE, MRSA, or P. aeruginosa in trypticase soy broth (TSB) at 37° C. for 24 hours. One-centimeter segments of non-impregnated catheters were also incubated individually in each bacterial suspension at 37° C. for 24 hours as controls. Catheter segments were removed from each bacterial suspension after this period, shaken to remove excess broth containing free-floating bacteria from their surfaces, placed in 1 ml of normal saline, sonicated for 5 minutes, and vortexed for 30 seconds.
(§5) To evaluate the anticolonization/antimicrobial activity of central venous catheters treated with dihydrolipoic acid, segments of 7 French triple lumen polyurethane central venous catheters were impregnated with dihydrolipoic acid using the same patented method described in Example 1 (U.S. Pat. No. 6,589,591) with 25 mg/ml (final solution volume) of the agent. After the impregnation process and drying, Catheter segments were then placed in the impregnating solution at 55° C. with agitation for 1 hour in the dark. Catheter segments were then removed from the solution and dried under a fume hood overnight in the dark. Catheter segments were rinsed with deionized water the next day and let dry for another 18 hours in the dark. […]

In assay [2] the test system is methicillin-resistant Staphylococcus epidermidis (MRSE). Described as above. The format is cell-based. The following applies: 10^5 cfu/ml suspension in TSB, 37° C., 24 hours. As for the experimental part:
as §1, §2, §3, §4, §5

The subject of the next assay is MSSE. Briefly: Zones of inhibition of impregnated catheter segments, modified Kirby-Bauer method. It counts as cell-based, Staphylococcus epidermidis. As for the experimental part: To evaluate the antimicrobial activity of central venous catheters treated with α-lipoic acid or its combination with gentamicin, segments of 7 French triple lumen polyurethane central venous catheters were impregnated with α-lipoic acid, gentamicin, or the combination of lipoic acid and gentamicin using the same patented method described in Example 1 with 50 mg/ml of each agent (for the final solution volume). After the impregnation process and drying, zones of inhibition were performed on one-centimeter segments according to a modified Kirby-Bauer method against MSSE, MRSE, MRSA, K. pneumoniae, E. coli, P. mirabilis, Pseudomonas aeruginosa, and Candida albicans. Each segment was half embedded in the center of a Muller-Hinton agar plate that had been previously inoculated with an individual organism. Prior to placing the catheter segments in agar, each organism was grown for 18 hours in TSB to a concentration of 0.5 McFarland (10^8 cfu/ml). A cotton swab was placed in the suspension and streaked across the surface of the Muller-Hinton agar plate to cover the entire plate. All plates were placed in a 37° C. incubator for 24 hours. Zones were measured in mm after the incubation period (Table 2).
To evaluate the antimicrobial activity of central venous catheters treated with α-lipoic acid or its combination with doxycycline, segments of 7 French triple lumen polyurethane central venous catheters were impregnated with doxycycline or the combinations of α-lipoic acid and doxycycline using the same patented method described in Example 1 (U.S. Pat. No. 6,589,591) with 50 mg/ml of each agent (for the final solution volume). After the impregnation process and drying, zones of inhibition were performed on one-centimeter segments according to a modified Kirby-Bauer method against MSSE, MRSE, MRSA, K. pneumoniae, E. coli, P. aeruginosa, P. mirabilis, and C. albicans as described in Example 2. Zones of inhibition were measured in mm after the incubation period (Table 3).
(§6) To evaluate the antimicrobial activity of central venous catheters treated with lipoamide or its combination with levofloxacin, segments of 7 French triple lumen polyurethane central venous catheters were impregnated with levofloxacin or the combinations of lipoamide and levofloxacin using the same patented method described in Example 1 (U.S. Pat. No. 6,589,591) with 100 mg/ml (final solution volume) of each agent. After the impregnation process and drying, zones of inhibition were performed on one-centimeter segments according to a modified Kirby-Bauer method against MSSE, MRSE, MRSA, vancomycin-resistant Enterococcus (VRE), K. pneumoniae, E. coli, P. aeruginosa, P. mirabilis, and C. albicans as described in Example 2. Zones of inhibition were measured in mm after the incubation period (Table 4).
as §6, with “doxycycline,” for “levofloxacin,”, “doxycycline” for “levofloxacin”, “5).” for “4).”
To evaluate the antimicrobial activity of central venous catheters treated with dihydrolipoic acid, segments of 7 French triple lumen polyurethane central venous catheters were impregnated with dihydrolipoic acid using the same patented method described in Example 1 (U.S. Pat. No. 6,589,591) with 25 mg/ml (final solution volume) of the agent. […]

The subject of another assay is common pathogens. Kind of assay: Antimicrobial activity of impregnated catheters, overall conclusion from Tables 1-8. The format is cell-based. The conditions noted are these: conclusion in words from Tables 1-8.
[3] abbreviates: catheter impregnated with 50 mg/ml.
[4] abbreviates: catheter impregnated with 25 mg/ml.
[5] abbreviates: catheter impregnated with 100 mg/ml.

Structures are written as SMILES.

Consider `O=C(O)CCCCC1CCSS1` (stereo not drawn) [Lipoic acid, 1,2-dithiolane-3-pentanoic acid], for which the “Bacterial colony counts extracted from central venous catheters” value in assay [1] (setting [3]) is reported as 0; in assay [2] (setting [3]), 60. Also, in the assay with MSSE (Staphylococcus epidermidis, catheter impregnated with 50 mg/ml of each agent, 37° C., 24 hours), the zone of inhibition at 50000 µg/mL is 32 mm. In addition, the intrinsic antimicrobial activity result in the assay with common pathogens is reported as “unexpected intrinsic antimicrobial activities”.

In the case of `O=C(O)CCCCC(S)CCS` (stereo not drawn) [Dihydrolipoic acid, 6,8-dimercaptooctanoic acid], the entries for the “Mean bacterial colony counts extracted from catheter” value in assay [1] (setting [4]) and in assay [2] (setting [4]) were 50 and 380, respectively. For the same compound, the Zones of inhibition in the assay with MSSE (catheter impregnated with 25 mg/ml of the agent) came to 25 mm. Moreover, the intrinsic antimicrobial activity entry in the assay with common pathogens is listed as “unexpected intrinsic antimicrobial activities”.

For the compound `NC(=O)CCCCC1CCSS1` (stereo not drawn) [Lipoamide, lipoamide], the “Mean bacterial colony counts extracted from catheter” value in assay [1] (setting [5]) and in assay [2] (setting [5]) was 0 in each case. Also, the zone of inhibition at 100000 µg/mL in the assay with MSSE (Staphylococcus epidermidis, catheter impregnated with 100 mg/ml of each agent) worked out at 24 mm. Further, in the assay on common pathogens, the intrinsic antimicrobial activity result is given as “unexpected intrinsic antimicrobial activities”.
